Reference: patent US8906858B2, “Method for the prophylactic or therapeutic treatment of glucocorticoid-induced osteoporosis” (Fritz-Lipmann-Institut E. V. Leibniz-Institut Fuer …, priority 2010, dated 2014)
Entries after “also recorded” stand apart in the source; their conditions may differ. Like-named read-outs stand apart in the source and are kept apart here.

Tests used:
MMP-13 = conditions: monocytic cells
IL-11 signaling = conditions: primary osteoblasts, 10^−6 M CpdA
Experimental: (§1) FIG. 18. […] B) After 6 h of cultivation, IL-11 mRNA expression levels were measured from total RNA extracts. C) IL-11 protein was measured in the supernatant using ELISA after 36 h of culture (n=3; Beta-actin was used for standardisation). *P<0.05, **P<0.01; 1-way ANOVA followed by Dunnett's multiple comparison test. […] E) Western blot analysis is shown for STAT3 phosphorylation of bones from GR^Runx2Cre mice subjected to organ cultures, treated as in D for 36 h.

[1] = test system: Cxcl10 and IL-6 mRNA expression; conditions: primary osteoblasts, 10^−6 M CpdA, 6 h
Experimental: as §1

DBA/1 mice = conditions: CpdA (300 ug) daily for 8 d
Experimental: (§2) FIG. 19. […] A) Cells were fixed and stained for ALP activity after 10 d and for mineralization of the matrix using Alizarin red after 20 d of culture. B) mRNA expression levels of osteoblast marker genes are shown, indicated as arbitrary units of actin expression.
(§3) FIG. 22. Determination of alkaline phosphatase activity (ALP) and corresponding IL-11 levels with ELISA 48 hrs after induction. A) Primary osteoblasts of wild type mice were cultured for 10 days with osteogenic inducers (OI) or 0.5 ng/ml IL-11 compared to untreated cells (ctr). Cells were fixed and stained for alkaline phosphatase activity (ALP). The corresponding IL-11 levels were determined with ELISA 48 hrs after induction.

primary osteoblasts = conditions: 10^−6 M CpdA, OI differentiation
Experimental: as §2, §3

[2] = test system: Mouse embryonic fibroblasts; assay: Functional screening assay, automated fluorescent microscopy of ALP activity and cytokines; type: cell-based
Experimental: Automated fluorescent microscopy for high content screening of factors involved in osteoblast differentiation. (A) In osteogenic differentiated (OI) wild type MEFs ALP activity is shown by a fluorescent product (ELF®, green) and nuclei are indicated by DRAQ5® staining (red).
500 Mouse embryonic fibroblasts are seeded per 384 well (2000 cells into a 96 well) until confluency (approx. 2 days). […] 3.7% Formalin is added (50 μl).
Differentiation of osteoblasts treated either with agents to be tested or with RNAi will be determined by staining for alkaline phosphatase activity (ALP kit; Sigma, Inc. or ELF® Phosphatase Detection Kit, ATCC). The preserved anti-inflammatory activity is monitored by immunhistochemical staining with antibodies against IL-6 and CXCL10. The avoidance to affect IL-11 and LIF expression is additionally determined by immunohistochemistry as well.
After fixation, the wells are stained with the nuclear stain DRAQ5 and a fluorescent substrate (ELF) for alkaline phosphatase activity. This allows monitoring cellular ALP activity by automatic microscopy and evaluation with the respective software (FIG. 17).
Immunohistochemical staining towards the antibodies IL-6, CXCL10, IL-11 and/or LIF follows as a last step. Fluorescent signals of the antibodies will be monitored by automatic microscopy and evaluation with the respective software.

bone tissue of mice = assay: Osteoblast proliferation and apoptosis in vivo (BrdU, TUNEL); design: species or system mouse; conditions: prednisolone for one day
Experimental: FIG. 10. Proliferation and apoptosis in bones of prednisolone treated GR^Runx2Cre animals. (A, B). GR^flox and GR^Runx2Cre mice were treated with prednisolone for one day pulsed with BrdU for 4 hours and histological sections of long bones stained with anti-BrdU antibody (A) and with a TUNEL kit (B). BM: bone marrow; Scale bar: 20 μm.
Mice were treated with prednisolone (12.5 mg/kg/d) for one day and they got pulsed with 10 μg/g body weight BrdU 4 hours before dissection. Decalcified deparaffined femur sections were stained with the In situ Cell Death Detection Kit (Roche) for apoptosis and rat anti-BrdU (Abcam) following Peroxidase coupled anti-rat IgG for proliferation.

[3] = test system: osteoblastogenesis in bone marrow / long bones of mice; assay: CFU-OBs and Col1a1 mRNA in long bones after three days of prednisolone; type: in vivo, mouse; conditions: for Col1a1 expression in long bones / osteoblastogenesis, colony forming units of osteoblasts (CFU-OBs): three days of prednisolone
Source text: (G) Number of CFU-OBs within the bone marrow/leg (femur and tibia) and (H) qRT-PCR-determined Col1a1 mRNA expression in long bones of mice treated with placebo or prednisolone for three days.
(F) Number of CFU-OBs within the bone marrow/leg and (G) qRT-PCR-determined Col1a1 mRNA expression in long bones of mice treated with placebo or prednisolone for three days.
CFU-OBs per leg were obtained by counting Alizarin Red-positive colonies of 2×10^6 bone marrow cells (excluding erythrocytes) plated per 6-well after 20 days under osteogenic conditions.

[4] = test system: Female 9 week old FVB/N mice; assay: LIF administration to prednisolone treated mice, MicroCT analysis; type: in vivo, mouse
Experimental: FIG. 23. LIF treatment elevates bone density of prednisolone treated mice. Female 9 week old FVB/N mice were treated with control pellets (sham), prednisolone (Pred) releasing pellets (12 mg/kg/day releasing rate) and were treated one day later with PBS and LIF i.p. injections twice a day (0.2 mg/kg/day) until 15 days. Mice were sacrificed on day 16. MicroCT Analysis was performed and representative longitudinal sections shown in (A), Bone Volume/Tissue volume determined (B) and trabecular thickness and trabecular numbers calculated (C, D). n=6, * p<0.05, ** p<0.01, *** p<0.001
After 15 days the bone mineral density was determined by micro computertomography (FIG. 23).
Female 9 week old FVB/N mice were treated with control pellets (sham), prednisolone (Pred) releasing pellets (12 mg/kg/day releasing rate) and were treated one day later with PBS and LIF i.p. injections twice a day (0.2 mg/kg/day) until 15 days. Mice were sacrificed on day 16.

[5] = test system: primary wild type osteoblasts; assay: Soluble factors added to osteoblasts during osteogenic induction in presence or absence of Dex; type: cell-based, mouse; conditions: day 10, with Dex
Experimental: FIG. 7. Differential gene regulation in GR^dim osteoblasts and bone organs by GCs and involvement of AP-1 in suppression of IL-11 in osteoblast differentiation. (A-E) Primary osteoblasts were grown until confluence and treated as described in FIG. 4A. qRT-PCR-determined mRNA expression levels of GILZ, Per-1, KLF15, Lif (LIF) and II11 (IL-11) after six hours. (F-H) qRT-PCR-determined mRNA expression level of IL-11 in organ cultures of GR mutant fetal hind legs (F), in dN^Runx2Cre osteoblasts (G) and c-jun^null MEFs (H) after six hours treatment. (I) Chromatin immunoprecipitation of MEFs after six hours. […] IgG precipitation served as negative control and amplification of the input as positive control. […] At day 10, ALP activity was determined and at day 20, Alizarin Red staining was performed. (K) Quantification of ALP-positive cells treated as in (J) after 10 days. (L) qRT-PCR-determined Runx2 mRNA expression level in cells treated as in (J) after 10 days.
FIG. 13. Effects of GR regulated soluble factors on osteoblast cell numbers. […] At day 10 cell counts were determined by automatic microscopy. Data are represented as mean+/−SEM. *<0.05.
FIG. 14. Effects of GR regulated soluble factors on osteoblast cell differentiation. Primary wild type osteoblasts were differentiated with or without Dex. At day 10 the specific ALP activity was determined and is depicted as ALP positive cells in percent in the absence or presence of NGF (A), IL-6 (B), EGF (C) and LIF (D). Data are represented as mean+/−SEM. * p<0.05; ** p<0.01.
Primary osteoblasts were isolated from either embryonic (E18.5) or neonatal calvaria by sequential digestions and cultivated as previously described (David et al., 2005). c-Jun-deficient cells were obtained from previously described mice (Schreiber et al., 1999). […] Differentiation of osteoblasts was determined by staining for ALP activity (ALP kit, Sigma or ELF® Phosphatase Detection Kit, ATCC) or by Alizarin Red staining (Sigma) at indicated time points. Apoptosis was detected by In situ Cell Death Detection Kit (Roche), and proliferation with fluorescent immunohistochemistry using mouse anti-Ki-67 (BD Pharmingen™) and Alexa Fluor® 594-labeled donkey anti-mouse IgG (Molecular Probes™). Quantification of the stainings and cell numbers according to DAPI labeling was performed by automated microscopy using Cellomics ArrayScan and software HCS Scan® (Thermo-Fischer). The factors EGF (Calbiochem), NGF2 (Sigma), IL-6 (ImmunoTools), IL-11 (Antigenix America, Inc.) and LIF (Chemicon) were added to the culture after differentiation at concentrations of 0.8, 4 and 20 ng/ml. qRT-PCR was performed as previously described (Tuckermann et al., 2007). Primer information can be provided upon request.

human cells = conditions: cited from earlier work
[6] = wild type (GR^flox) mice, prednisolone for two weeks

Experimental for 10-week-old female mice: Vertebral bodies of 10-week-old female GR^Runx2cre and GR^flox mice treated with placebo (Plac) or prednisolone (Pred; 12.5 mg/kg/day) for two weeks were analyzed by (A) von Kossa staining of undecalcified sections and (B) histomorphometry of BV/TV and TbTh. (C) DPD/Cr levels in urine of mice after prednisolone treatment at indicated times. (D) Histomorphometry of osteoblast number/bone perimeter (NOb/BPm), osteocyte number/bone area (NOy/BAR) and osteoclast number/bone perimeter (NOc/BPm). (E) Fluorescent micrographs of dual calcein labeling and (F) its quantitative analysis of bone formation rate/bone surface (BFR/BS). (G) Number of CFU-OBs within the bone marrow/leg (femur and tibia) and (H) qRT-PCR-determined Col1a1 mRNA expression in long bones of mice treated with placebo or prednisolone for three days. (I) Fluorescent micrographs of dual calcein labeling and (J) its quantitative analysis of BFR/BS in tibiae of GR^LysMcre and corresponding GR^flox control mice.
(A) Fluorescent micrographs of dual calcein labeling and (B) its quantitative analysis of BFR/BS in vertebrae of GR^dim and wild type (wt) mice treated as described in FIG. 2. (C) Vertebral bodies were analyzed by von Kossa staining of undecalcified sections. (D) Histomorphometry of BV/TV, TbTh, (E) NOb/BPm, NOy/BAR and NOc/BPm. (F) Number of CFU-OBs within the bone marrow/leg and (G) qRT-PCR-determined Col1a1 mRNA expression in long bones of mice treated with placebo or prednisolone for three days. (H) DPD/Cr levels in urine of mice after prednisolone treatment at indicated times.
All animal experiments were performed in accordance with accepted standards of animal welfare and with permission of the responsible authorities of Baden-Württemberg and Thüringen. […] To induce osteoporosis, prednisolone (or a placebo control) was applied for 14 days by subcutaneous implantation of slow-release pellets resulting in a calculated dose of 12.5 mg/kg/d (15 mg; 60-day release; Innovative Research of America, Inc.) in 10-week-old female mice.
Parameters of static and dynamic histomorphometry were quantified on toluidine blue-stained undecalcified proximal tibia and lumbar vertebral sections as described previously (Amling et al., 1999) using the Osteo-histomorphometry system (Osteometrics, Atlanta, Ga., USA) (Parfitt et al., 1987). Osteocytes were assessed at the cortical bone by OsteoMeasure™ software. To assess dynamic histomorphometric indices, mice were given two injections of calcein, nine and two days before dissection. Fluorochrome measurements for the determination of the bone formation rate were performed on two nonconsecutive 12-μm-thick sections for each animal. Statistical differences between the groups (n=5-6) were assessed by the Student's t-test.

Compound: CNCC(Cl)c1ccc(OC(C)=O)cc1.Cl (stereo not drawn) [Compound A]
- AP-1 dependent gene MMP-13 (MMP-13): repressed
- IL-11 signaling (IL-11 signaling): not IL-11 signaling
- proinflammatory gene expression [1]: inhibits proinflammatory gene expression
- osteoblast markers in vivo (DBA/1 mice): does not affect
- osteoblast differentiation and osteoblast markers in vitro (primary osteoblasts): does not affect
- result in the method for identifying agents [2]: tested as a hit

Compound: C[C@]12C=CC(=O)C=C1CC[C@@H]1[C@@H]2[C@@H](O)C[C@@]2(C)[C@H]1CC[C@]2(O)C(=O)CO [prednisolone]
- TUNEL and BrdU pulse labeling within bone tissue (bone tissue of mice): did not alter
- Col1a1 expression in long bones ([3]; GR^Runx2Cre mice): remained unchanged
- osteoblastogenesis, colony forming units of osteoblasts (CFU-OBs) ([3]; GR^Runx2Cre mice): not in GR^Runx2Cre mice
- Col1a1 expression ([3]; GR^dim and wild type mice): similarly reduced in both genotypes
- Osteoblastogenesis in vitro (CFU-OBs) ([3]; GR^dim and wild type mice): as efficiently suppressed in GR^dim as in wild type mice
- Col1a1 expression in long bones ([3]; GR^flox mice): strongly reduced
- osteoblastogenesis, colony forming units of osteoblasts (CFU-OBs) ([3]; GR^flox mice): strongly impaired
- bone formation rate (10-week-old female mice; GR^LysMCre and wild type mice, prednisolone for two weeks): similarly reduced
- numbers of osteocytes, osteoblasts and osteoblast surface (10-week-old female mice; GR^Runx2Cre mice): unaltered
- bone mineral density and trabecular thickness (10-week-old female mice; GR^Runx2Cre mice, prednisolone for two weeks): not affected
- bone formation, dynamic histomorphometry following dual calcein labeling (10-week-old female mice; GR^Runx2cre mice): fully protected
- bone formation (10-week-old female mice; GR^dim and wild type mice): similarly repressed
- bone mass and trabecular thickness of the vertebrae (10-week-old female mice; GR^dim and wild type mice): reduced to a comparable degree
- osteoblast and osteocyte numbers (10-week-old female mice; GR^dim and wild type mice): strong reduction
- osteoclast numbers (10-week-old female mice; GR^dim and wild type mice): not changed
- resorption (DPD/Cr) (10-week-old female mice; GR^dim and wild type mice): slightly decreased
- osteoclast numbers (10-week-old female mice; GR^flox and GR^Runx2Cre mice): not affected
- Resorption, deoxypyridinoline (DPD/Cr) levels (10-week-old female mice; GR^flox and GR^Runx2Cre mice, urine): slightly decreased
- numbers of osteocytes, osteoblasts and osteoblast surface (10-week-old female mice; GR^flox mice): decreased
- unspecific toxic effects of the prednisolone dose (10-week-old female mice; mouse, in vivo): no unspecific toxic effects
- reduction of osteocytes (10-week-old female mice; prednisolone treated mice): 20-35%
- bone formation, dynamic histomorphometry following dual calcein labeling (10-week-old female mice; vertebrae of wild type mice): almost complete inhibition
- bone mineral density in vertebral bones (10-week-old female mice; [6]): reduced
- trabecular thickness (10-week-old female mice; [6]): decreased
- trabecular thickness ([4]; prednisolone pellets 12 mg/kg/day, also in LIF treated animals): reduction of trabecular thickness

Compound: IL-6: Interleukin 6 added to osteoblast cultures
- rescue of Dex-reduced osteoblast cell numbers [5]: neither rescued the reduced cell numbers

Compound: LIF: Leukaemia inhibitory factor, secreted polyfunctional cytokine; recombinant protein
- rescue of Dex-impaired osteoblast differentiation (ALP positive cells) [5]: potently antagonized; also recorded: ameliorated the inhibition of osteoblast differentiation
- rescue of Dex-reduced osteoblast cell numbers [5]: not rescuing
- trabecular number ([4]; LIF i.p. 0.2 mg/kg/day, 15 days): strong increase
- bone mass (bone volume/tissue volume) ([4]; sham treated and prednisolone treated animals, LIF i.p. 0.2 mg/kg/day, 15 days): increases bone mass

Compound: epidermal growth factor: epidermal growth factor, evokes HB-EGF signaling in osteoblasts (NSDSECPLSHDGYCLHDGVCMYIEALDKYACNCVVGYIGERCQYRDLKWWELR; not fully specified; Epidermal growth factor; UniProt P01133 971-1023, looked up)
- rescue of Dex-impaired osteoblast differentiation (ALP positive cells) [5]: did not prevent the inhibition of differentiation
- rescue of Dex-reduced osteoblast cell numbers [5]: counteracted the reduction in cell number

Compound: human LIF: human mature LIF polypeptide of 180 amino acid residues
- activity on human and mouse cells (human cells): equally active on both human and mouse cells
